For 4 compounds, MIC results are on record in ChEMBL document CHEMBL2046305, “Discovery of selective menaquinone biosynthesis inhibitors against Mycobacterium tuberculosis” (J Med Chem, 2012).

Experiment [1] concerns Mycobacterium tuberculosis. In words: Antibacterial activity against rifampicin-resistant Mycobacterium tuberculosis H37Rv by microplate alamar blue assay. The class given is functional. A general note: Alamar Blue is a resazurin reagent that responds to reducing activity.
Experiment [2] relates to Mycobacterium tuberculosis. In words: Antibacterial activity against isoniazid-resistant Mycobacterium tuberculosis H37Rv by microplate alamar blue assay. The class given is functional.

Values after ≈ are worked out from the molar mass of the structure shown. Some results are limits rather than exact numbers.

The MIC is the lowest concentration that inhibits growth of the organism. High values mean weaker potency, low ones greater potency. As to `CO[C@H]1/C=C/O[C@@]2(C)Oc3c(C)c(O)c4c(O)c(c(/C=N/N5CCN(C)CC5)c(O)c4c3C2=O)NC(=O)/C(C)=C\C=C\[C@H](C)[C@H](O)[C@@H](C)[C@@H](O)[C@@H](C)[C@H](OC(C)=O)[C@@H]1C` [RIFAMPIN], the MIC in experiment [1] was > 4 µg/mL; in experiment [2], 0.03 µg/mL (≈ 0.0365 µM).

For the compound `CCCCCC[C@H](CN1CCC(COc2cccc(C(=O)c3ccc(Cl)cc3)c2)CC1)OC(N)=O`, the MIC in experiment [1] and in experiment [2] was 2.91 µg/mL (≈ 5.81 µM) each time.

In the case of `NNC(=O)c1ccncc1` [ISONIAZID], the MIC was 0.05 µg/mL (≈ 0.365 µM) in experiment [1] and > 8 µg/mL in experiment [2].

For `CCCCCC[C@H](CN1CCC(COc2cccc(/C(=N\OC)c3ccc(Cl)cc3)c2)CC1)OC(N)=O`, the values for the MIC in experiment [1] and in experiment [2] were 1.51 µg/mL (≈ 2.85 µM) and 1.52 µg/mL (≈ 2.87 µM), respectively.
